For one molecule, IC50 results are on record in patent US12569563B2, “Selective HDAC6 degraders and methods of use thereof” (DANA-FARBER CANCER INSTITUTE, INC., priority 2019, dated 2026).

The assay deals with T1, CRBN (Homo sapiens, UniProt Q96SW2).
T1 construct: endogenous in cells; host or cells: Flp-In 293 cells stably expressing BRD4BD2-eGFP-P2A-mCherry
Description: Cellular CRBN engagement assay (competition with dBET6, BRD4BD2-eGFP reporter). As to conditions: Flip-In 293 BRD4BD2-eGFP cells, 100 nM dBET6, 5 h. In kind it is cell-based. The text has this: The cellular CRBN engagement assay measures the cellular binding affinity which is the combination of the compound's cell permeability and their binding affinity to CRBN. This is done by measuring the ability of thalidomide-based degrader molecules to compete with pan-BET bromodomain degrader dBET6 (Nowak et al., Nat. Chem. Biol. 14:706-714 (2018)) for CRBN binding in cells. If no degrader compound is present in the cell, BRD4BRD2-eGFP is degraded by dBET6 via the proteasome system. […]
Cells were seeded at 30-50% confluency in either 24, 48 or 96 well plates (3524, 3548, 3596 respectively, Costar) a day before compound treatment. The inventive compounds were titrated in the presence of 100 nM dBET6 and then were incubated with cells for 5 h following trypsinization and resuspension in DMEM media, transferred into 96-well plates (353910, Falcon®) and analyzed by flow cytometer (Guava® easyCyte™ HT, Millipore®). Signal from at least 3000 events per well was acquired and the eGFP and mCherry florescence monitored. Data was analyzed using FlowJo® (FlowJo®, LCC). Forward and side scatter outliers, frequently associated with cell debris, were removed leaving >90% of total cells, followed by removal of eGFP and mCherry signal outliers, leaving 88-90% of total cells creating the set used for quantification. […]

SMILES strings stand for the structures.

Turning to `CN(C(=O)CCCCCNc1cccc2c1C(=O)N(C1CCC(=O)NC1=O)C2=O)c1ccc(NC(=O)CCCCCCC(=O)NO)cc1` (stereo not shown) [Compound 2, N^1-(4-(6-((2-(2,6-dioxopiperidin-3-yl)-1,3-dioxoisoindolin-4-yl)amino)-N-methylhexanamido)phenyl)-N^8-hydroxyoctanediamide], the IC50 amounted to 5.37 µM.

By IC50 is commonly meant the point on the concentration scale where inhibition reaches its midpoint.
